Measurements published in the kinase profiling compilation of Christmann-Franck et al. (2016).

Legend:
Experiment in all cases: radiometric filter-binding kinase assay, Kinase HotSpot
Settings in all cases: compound 0.5 µM; ATP 10 µM
CDK4 CCND3 (human) = CDK4 CCND3 (human) (UniProt P30281+P11802)
CDK6 CCND1 (human) = CDK6 CCND1 (human) (UniProt Q00534+P24385)
PBK (human) = PBK (human) (UniProt Q96KB5)
TEC (human) = TEC (human) (UniProt P42680)
MAP3K2 (human) = MAP3K2 (human) (UniProt Q9Y2U5)
PHKG2 (human) = PHKG2 (human) (UniProt P15735)
MAPK1 (human) = MAPK1 (human) (UniProt P28482)
MERTK (human) = MERTK (human) (UniProt Q12866)
TAOK2 (human) = TAOK2 (human) (UniProt Q9UL54)
ACVR1B (human) = ACVR1B (human) (UniProt P36896)
Chain of ACVR1B (human) (P36896 whole entry, looked up): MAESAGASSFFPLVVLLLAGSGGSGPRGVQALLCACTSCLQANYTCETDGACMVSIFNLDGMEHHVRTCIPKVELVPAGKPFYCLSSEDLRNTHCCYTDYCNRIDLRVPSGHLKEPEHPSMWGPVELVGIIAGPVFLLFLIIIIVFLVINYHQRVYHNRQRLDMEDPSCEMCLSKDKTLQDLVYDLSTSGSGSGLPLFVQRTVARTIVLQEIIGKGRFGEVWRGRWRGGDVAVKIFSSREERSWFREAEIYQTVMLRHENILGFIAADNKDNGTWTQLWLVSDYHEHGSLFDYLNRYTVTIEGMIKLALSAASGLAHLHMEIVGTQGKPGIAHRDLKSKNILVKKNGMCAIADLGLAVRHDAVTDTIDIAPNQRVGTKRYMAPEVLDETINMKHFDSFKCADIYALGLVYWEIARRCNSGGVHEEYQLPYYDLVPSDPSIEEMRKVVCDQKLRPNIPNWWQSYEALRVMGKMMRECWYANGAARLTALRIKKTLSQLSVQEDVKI

MAP3K7 TAB1 (human) = MAP3K7 TAB1 (human) (UniProt O43318+Q15750)
TNK2 (human) = TNK2 (human) (UniProt Q07912)
ERBB4 (human) = ERBB4 (human) (UniProt Q15303)
AURKC (human) = AURKC (human) (UniProt Q9UQB9)
Chain of AURKC (human) (Q9UQB9 whole entry, looked up): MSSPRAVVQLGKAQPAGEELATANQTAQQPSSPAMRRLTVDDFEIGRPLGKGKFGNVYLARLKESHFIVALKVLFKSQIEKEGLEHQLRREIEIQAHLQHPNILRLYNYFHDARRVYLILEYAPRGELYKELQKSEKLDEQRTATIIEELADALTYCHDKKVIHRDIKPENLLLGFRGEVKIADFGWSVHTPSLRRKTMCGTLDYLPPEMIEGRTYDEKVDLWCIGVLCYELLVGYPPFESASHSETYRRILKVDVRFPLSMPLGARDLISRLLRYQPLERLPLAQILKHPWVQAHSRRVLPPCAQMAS

CDK1 CCNA2 (human) = CDK1 CCNA2 (human) (UniProt P06493+P20248)
STK11 (human) = STK11 (human) (UniProt Q15831)
WEE1 (human) = WEE1 (human) (UniProt P30291)
NEK11 (human) = NEK11 (human) (UniProt Q8NG66)
PRKACG (human) = PRKACG (human) (UniProt P22612)
TAOK1 (human) = TAOK1 (human) (UniProt Q7L7X3)
TSSK1B (human) = TSSK1B (human) (UniProt Q9BXA7)
Chain of TSSK1B (human) (Q9BXA7 whole entry, looked up): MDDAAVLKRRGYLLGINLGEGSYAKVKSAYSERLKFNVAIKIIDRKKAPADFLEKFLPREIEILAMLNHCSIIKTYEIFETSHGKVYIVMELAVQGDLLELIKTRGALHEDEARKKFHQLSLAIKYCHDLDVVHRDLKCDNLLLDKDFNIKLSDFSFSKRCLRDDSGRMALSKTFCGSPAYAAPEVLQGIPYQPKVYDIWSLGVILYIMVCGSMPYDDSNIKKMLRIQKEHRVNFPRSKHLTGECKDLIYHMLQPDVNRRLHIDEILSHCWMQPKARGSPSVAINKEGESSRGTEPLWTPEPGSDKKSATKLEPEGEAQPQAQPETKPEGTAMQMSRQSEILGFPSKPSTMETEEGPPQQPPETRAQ

FES (human) = FES (human) (UniProt P07332)
RPS6KB1 (human) = RPS6KB1 (human) (UniProt P23443)
AKT2 (human) = AKT2 (human) (UniProt P31751)
Chain of AKT2 (human) (P31751 whole entry, looked up): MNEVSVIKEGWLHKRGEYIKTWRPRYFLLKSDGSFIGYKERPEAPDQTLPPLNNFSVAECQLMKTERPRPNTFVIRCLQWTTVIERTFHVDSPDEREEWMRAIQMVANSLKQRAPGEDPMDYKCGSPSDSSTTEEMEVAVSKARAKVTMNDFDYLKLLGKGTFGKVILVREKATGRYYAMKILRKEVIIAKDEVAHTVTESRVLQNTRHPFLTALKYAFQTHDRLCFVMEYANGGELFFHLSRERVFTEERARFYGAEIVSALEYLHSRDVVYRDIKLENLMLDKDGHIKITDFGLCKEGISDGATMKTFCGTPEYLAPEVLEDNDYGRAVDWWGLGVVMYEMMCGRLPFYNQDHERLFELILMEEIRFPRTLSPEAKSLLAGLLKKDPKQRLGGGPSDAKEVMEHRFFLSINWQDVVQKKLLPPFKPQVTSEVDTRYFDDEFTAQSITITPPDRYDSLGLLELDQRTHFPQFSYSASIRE

KDR (human) = KDR (human) (UniProt P35968)
RET (human) = RET (human) (UniProt P07949)
Chain of RET (human) (P07949 whole entry, looked up): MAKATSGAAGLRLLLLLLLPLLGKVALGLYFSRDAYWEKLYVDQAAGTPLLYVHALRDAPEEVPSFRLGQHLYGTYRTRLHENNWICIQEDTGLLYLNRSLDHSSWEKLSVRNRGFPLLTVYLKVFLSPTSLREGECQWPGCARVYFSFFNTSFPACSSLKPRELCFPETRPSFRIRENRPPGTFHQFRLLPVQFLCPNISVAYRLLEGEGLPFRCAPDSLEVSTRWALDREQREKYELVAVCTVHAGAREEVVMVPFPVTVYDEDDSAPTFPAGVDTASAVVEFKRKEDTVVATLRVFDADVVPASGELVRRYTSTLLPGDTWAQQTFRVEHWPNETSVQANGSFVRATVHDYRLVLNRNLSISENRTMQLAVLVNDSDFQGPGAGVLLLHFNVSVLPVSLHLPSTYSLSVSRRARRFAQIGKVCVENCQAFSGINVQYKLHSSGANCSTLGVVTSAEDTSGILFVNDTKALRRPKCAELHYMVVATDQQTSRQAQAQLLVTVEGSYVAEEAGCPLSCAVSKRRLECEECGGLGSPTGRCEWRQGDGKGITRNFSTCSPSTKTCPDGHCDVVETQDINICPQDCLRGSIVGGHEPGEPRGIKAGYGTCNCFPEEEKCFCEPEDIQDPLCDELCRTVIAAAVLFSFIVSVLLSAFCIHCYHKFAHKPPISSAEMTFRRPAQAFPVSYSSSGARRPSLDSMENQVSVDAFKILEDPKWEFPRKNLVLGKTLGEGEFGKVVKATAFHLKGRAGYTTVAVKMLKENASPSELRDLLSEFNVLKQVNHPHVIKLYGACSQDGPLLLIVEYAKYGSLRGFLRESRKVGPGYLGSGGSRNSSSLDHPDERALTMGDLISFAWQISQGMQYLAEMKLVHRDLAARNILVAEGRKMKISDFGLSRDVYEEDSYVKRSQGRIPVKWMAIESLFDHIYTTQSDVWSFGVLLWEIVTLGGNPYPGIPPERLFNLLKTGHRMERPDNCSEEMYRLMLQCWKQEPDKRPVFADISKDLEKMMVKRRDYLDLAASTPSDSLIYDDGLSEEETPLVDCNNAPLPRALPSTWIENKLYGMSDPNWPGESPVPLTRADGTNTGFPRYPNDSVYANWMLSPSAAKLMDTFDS

MAPK14 (human) = MAPK14 (human) (UniProt Q16539)
VRK1 (human) = VRK1 (human) (UniProt Q99986)
EPHA4 (human) = EPHA4 (human) (UniProt P54764)
CDK5 CDK5R1 p25 (human) = CDK5 CDK5R1 p25 (human) (UniProt Q00535+Q15078)
RPS6KA5 KD2 (human) = RPS6KA5 KD2 (human) (UniProt O75582)
Chain of RPS6KA5 KD2 (human) (O75582 whole entry, looked up): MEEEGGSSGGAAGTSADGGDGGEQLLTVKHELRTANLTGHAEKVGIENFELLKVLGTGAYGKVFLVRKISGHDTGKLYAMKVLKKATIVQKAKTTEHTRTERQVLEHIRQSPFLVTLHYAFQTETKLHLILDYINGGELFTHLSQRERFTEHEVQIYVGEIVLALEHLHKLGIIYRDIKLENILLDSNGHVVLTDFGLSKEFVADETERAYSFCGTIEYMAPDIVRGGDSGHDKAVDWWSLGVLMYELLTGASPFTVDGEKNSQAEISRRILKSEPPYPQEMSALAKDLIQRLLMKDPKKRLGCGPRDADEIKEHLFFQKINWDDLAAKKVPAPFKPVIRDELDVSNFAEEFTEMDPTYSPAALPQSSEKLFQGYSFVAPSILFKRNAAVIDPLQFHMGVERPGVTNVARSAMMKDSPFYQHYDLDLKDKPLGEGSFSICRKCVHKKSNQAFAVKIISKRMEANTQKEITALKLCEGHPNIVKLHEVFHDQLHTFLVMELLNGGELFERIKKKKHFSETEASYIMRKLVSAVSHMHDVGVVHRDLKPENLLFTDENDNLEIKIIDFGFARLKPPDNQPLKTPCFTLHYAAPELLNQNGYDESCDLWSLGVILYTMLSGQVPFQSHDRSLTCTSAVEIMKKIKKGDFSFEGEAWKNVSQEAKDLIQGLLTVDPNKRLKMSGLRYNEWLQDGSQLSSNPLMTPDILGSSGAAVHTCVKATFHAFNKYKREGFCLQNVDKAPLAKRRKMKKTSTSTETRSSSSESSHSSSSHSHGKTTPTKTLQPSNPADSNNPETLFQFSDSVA

DAPK2 (human) = DAPK2 (human) (UniProt Q9UIK4)
PAK3 (human) = PAK3 (human) (UniProt O75914)
FGR (human) = FGR (human) (UniProt P09769)
Chain of FGR (human) (P09769 whole entry, looked up): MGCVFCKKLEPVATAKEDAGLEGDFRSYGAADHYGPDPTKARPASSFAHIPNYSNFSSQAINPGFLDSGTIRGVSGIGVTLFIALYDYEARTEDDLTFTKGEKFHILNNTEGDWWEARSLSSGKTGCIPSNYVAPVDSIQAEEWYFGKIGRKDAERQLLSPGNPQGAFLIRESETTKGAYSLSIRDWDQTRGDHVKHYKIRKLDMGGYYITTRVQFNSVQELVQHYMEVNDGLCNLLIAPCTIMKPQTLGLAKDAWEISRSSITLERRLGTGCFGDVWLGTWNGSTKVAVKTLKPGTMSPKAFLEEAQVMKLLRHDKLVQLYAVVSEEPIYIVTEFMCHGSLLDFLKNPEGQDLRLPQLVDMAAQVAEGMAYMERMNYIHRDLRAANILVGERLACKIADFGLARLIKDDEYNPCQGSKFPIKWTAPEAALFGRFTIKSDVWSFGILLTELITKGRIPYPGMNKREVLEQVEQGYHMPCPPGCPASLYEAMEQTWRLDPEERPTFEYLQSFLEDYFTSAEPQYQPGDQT

PKN2 (human) = PKN2 (human) (UniProt Q16513)
KIT (human) = KIT (human) (UniProt P10721)
CLK3 (human) = CLK3 (human) (UniProt P49761)
CSNK1D (human) = CSNK1D (human) (UniProt P48730)
ERBB2 (human) = ERBB2 (human) (UniProt P04626)
DDR2 (human) = DDR2 (human) (UniProt Q16832)
RAF1 (human) = RAF1 (human) (UniProt P04049)
PDPK1 (human) = PDPK1 (human) (UniProt O15530)

Chain of MAP3K2 (human) (Q9Y2U5 whole entry, looked up): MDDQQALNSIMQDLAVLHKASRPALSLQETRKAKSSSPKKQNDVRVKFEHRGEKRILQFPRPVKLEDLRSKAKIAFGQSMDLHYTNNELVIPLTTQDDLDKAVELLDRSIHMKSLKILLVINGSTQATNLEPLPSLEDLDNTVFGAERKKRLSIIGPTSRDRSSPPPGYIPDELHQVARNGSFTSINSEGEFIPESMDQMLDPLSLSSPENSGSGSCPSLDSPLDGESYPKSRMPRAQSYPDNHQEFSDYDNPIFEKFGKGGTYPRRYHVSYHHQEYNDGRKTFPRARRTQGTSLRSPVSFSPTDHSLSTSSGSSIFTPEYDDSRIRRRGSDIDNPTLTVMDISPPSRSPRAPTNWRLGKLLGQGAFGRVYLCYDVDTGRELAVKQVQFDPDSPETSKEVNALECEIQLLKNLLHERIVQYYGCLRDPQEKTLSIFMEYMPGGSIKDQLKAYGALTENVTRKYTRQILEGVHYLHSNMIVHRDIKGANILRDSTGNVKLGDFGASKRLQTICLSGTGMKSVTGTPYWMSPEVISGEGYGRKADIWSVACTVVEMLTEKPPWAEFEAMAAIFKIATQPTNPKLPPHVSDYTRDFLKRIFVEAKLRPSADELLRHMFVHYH

## CC(C)N(CCC(=O)c1ccc2ccccc2c1)Cc1ccccc1
CDK4 CCND3 (human)
  residual activity: 92.4%
CDK6 CCND1 (human)
  residual activity: 96.8%
PBK (human)
  residual activity: 108%
TEC (human)
  residual activity: 115%
MAP3K2 (human)
  residual activity: 107%
PHKG2 (human)
  residual activity: 99.9%
MAPK1 (human)
  residual activity: 87.4%
MERTK (human)
  residual activity: 106%
TAOK2 (human)
  residual activity: 96.1%
ACVR1B (human)
  residual activity: 99.5%
MAP3K7 TAB1 (human)
  residual activity: 95.4%
TNK2 (human)
  residual activity: 92.4%
ERBB4 (human)
  residual activity: 91.7%
AURKC (human)
  residual activity: 97.5%
CDK1 CCNA2 (human)
  residual activity: 92.9%
STK11 (human)
  residual activity: 94.2%
WEE1 (human)
  residual activity: 92.1%
NEK11 (human)
  residual activity: 105%
PRKACG (human)
  residual activity: 107%
TAOK1 (human)
  residual activity: 94.9%
TSSK1B (human)
  residual activity: 100%
FES (human)
  residual activity: 92.7%
RPS6KB1 (human)
  residual activity: 97.2%
AKT2 (human)
  residual activity: 96.5%
KDR (human)
  residual activity: 98.9%
RET (human)
  residual activity: 101%
MAPK14 (human)
  residual activity: 94.4%
VRK1 (human)
  residual activity: 95.8%
EPHA4 (human)
  residual activity: 94.5%
CDK5 CDK5R1 p25 (human)
  residual activity: 96.5%
RPS6KA5 KD2 (human)
  residual activity: 102%
DAPK2 (human)
  residual activity: 99.6%
PAK3 (human)
  residual activity: 98.6%
FGR (human)
  residual activity: 94.2%
PKN2 (human)
  residual activity: 98.7%
KIT (human)
  residual activity: 86.5%
CLK3 (human)
  residual activity: 99.6%
CSNK1D (human)
  residual activity: 97.6%
ERBB2 (human)
  residual activity: 98.7%
DDR2 (human)
  residual activity: 92.5%
RAF1 (human)
  residual activity: 87.3%

## Nc1ncnc2c1c(-c1ccc(Oc3ccccc3)cc1)cn2C1CCCC1
CDK4 CCND3 (human)
  residual activity: 108%
CDK6 CCND1 (human)
  residual activity: 98.2%
PBK (human)
  residual activity: 114%
TEC (human)
  residual activity: 8.33%
MAP3K2 (human)
  residual activity: 83.8%
PHKG2 (human)
  residual activity: 96.9%
MAPK1 (human)
  residual activity: 80.7%
MERTK (human)
  residual activity: 87.4%
TAOK2 (human)
  residual activity: 104%
ACVR1B (human)
  residual activity: 93.9%
MAP3K7 TAB1 (human)
  residual activity: 92.3%
TNK2 (human)
  residual activity: 2.7%
ERBB4 (human)
  residual activity: 11.9%
AURKC (human)
  residual activity: 95%
CDK1 CCNA2 (human)
  residual activity: 93.7%
STK11 (human)
  residual activity: 101%
WEE1 (human)
  residual activity: 77.8%
NEK11 (human)
  residual activity: 87.1%
PRKACG (human)
  residual activity: 106%
TAOK1 (human)
  residual activity: 84.6%
TSSK1B (human)
  residual activity: 114%
FES (human)
  residual activity: 94.9%
RPS6KB1 (human)
  residual activity: 104%
AKT2 (human)
  residual activity: 99.7%
KDR (human)
  residual activity: 75%
RET (human)
  residual activity: 9.97%
MAPK14 (human)
  residual activity: 76.3%
VRK1 (human)
  residual activity: 84.8%
PDPK1 (human)
  residual activity: 102%
EPHA4 (human)
  residual activity: 87.5%
RPS6KA5 KD2 (human)
  residual activity: 90.5%
DAPK2 (human)
  residual activity: 87.6%
PAK3 (human)
  residual activity: 98.4%
FGR (human)
  residual activity: 2.93%
PKN2 (human)
  residual activity: 104%
KIT (human)
  residual activity: 21.6%
CLK3 (human)
  residual activity: 96.9%
CSNK1D (human)
  residual activity: 85.1%
ERBB2 (human)
  residual activity: 101%
DDR2 (human)
  residual activity: 95%
RAF1 (human)
  residual activity: 71.3%

## CNC(=O)c1cc(Oc2ccc(NC(=O)Nc3ccc(Cl)c(C(F)(F)F)c3)cc2)ccn1
CDK4 CCND3 (human)
  residual activity: 114%
CDK6 CCND1 (human)
  residual activity: 91.8%
PBK (human)
  residual activity: 97.5%
TEC (human)
  residual activity: 101%
MAP3K2 (human)
  residual activity: 109%
PHKG2 (human)
  residual activity: 91.3%
MAPK1 (human)
  residual activity: 101%
MERTK (human)
  residual activity: 88.2%
TAOK2 (human)
  residual activity: 36.9%
ACVR1B (human)
  residual activity: 102%
MAP3K7 TAB1 (human)
  residual activity: 101%
TNK2 (human)
  residual activity: 97.6%
ERBB4 (human)
  residual activity: 94.8%
AURKC (human)
  residual activity: 106%
CDK1 CCNA2 (human)
  residual activity: 100%
STK11 (human)
  residual activity: 104%
WEE1 (human)
  residual activity: 103%
NEK11 (human)
  residual activity: 105%
PRKACG (human)
  residual activity: 100%
TAOK1 (human)
  residual activity: 82%
TSSK1B (human)
  residual activity: 98.7%
FES (human)
  residual activity: 104%
RPS6KB1 (human)
  residual activity: 91.4%
AKT2 (human)
  residual activity: 103%
RET (human)
  residual activity: 1.78%
MAPK14 (human)
  residual activity: 40.2%
VRK1 (human)
  residual activity: 99.3%
PDPK1 (human)
  residual activity: 95.8%
EPHA4 (human)
  residual activity: 92.5%
CDK5 CDK5R1 p25 (human)
  residual activity: 97.2%
RPS6KA5 KD2 (human)
  residual activity: 102%
DAPK2 (human)
  residual activity: 111%
PAK3 (human)
  residual activity: 103%
FGR (human)
  residual activity: 88.7%
PKN2 (human)
  residual activity: 94.2%
KIT (human)
  residual activity: 53.3%
CLK3 (human)
  residual activity: 99.3%
CSNK1D (human)
  residual activity: 103%
ERBB2 (human)
  residual activity: 103%
DDR2 (human)
  residual activity: 3.41%
